Measurements taken from the supplement of paper PMC10307832.

Key:
Assay in all cases: relative viability (nuclei count vs DMSO), 5 days (fraction); higher = more cells survive
[1] = compound: C1CSC2=C(C(=O)N1)SC3=C2C=C(C=C3)O [kb NB 142-70]
Summary of the method: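 A plate was accepted only when its control CV was below 25% and the cells had doubled at least once. Viability is defined from nuclear counts as treated wells divided by vehicle wells, with the median taken across plates. That median covers lung cancer cell lines grown in 1536-well plates, dosed by pinning at five √10-spaced library-drug concentrations, and counted in MetaXpress from 4× Hoechst images after 5 days.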

[2] = compound: C1CSC2=C(C(=O)N1)SC3=C2C=C(C=C3)O [kb NB 142-70] + Cc1nc(NC(=O)N2CCC[C@H]2C(N)=O)sc1-c1ccnc(C(C)(C)C(F)(F)F)c1 [Alpelisib] (partner 2 µM)
Summary of the method: (§1)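 Relative viability was taken as the ratio of nuclei in treated wells to nuclei in vehicle wells. Lung cancer cell lines in 1536-well plates received compounds by pin tool one day after seeding, either one drug alone or a fixed anchor-drug dose plus five library-drug doses (not always all listed) in √10 steps. Nuclei were counted on 4× images after 5 days of treatment, and values are medians of duplicate plates.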

[3] = compound: NCC(=O)Nc1ccc(-n2nc(C(F)(F)F)cc2-c2ccc3c(ccc4ccccc43)c2)cc1 + COc1cc2c(Oc3ccc(NC(=O)C4(C(=O)Nc5ccc(F)cc5)CC4)cc3F)ccnc2cc1OCCCN1CCOCC1 [Foretinib] (partner 0.25 µM)
Summary of the method: as §1

[4] = compound: NCC(=O)Nc1ccc(-n2nc(C(F)(F)F)cc2-c2ccc3c(ccc4ccccc43)c2)cc1 + C[C@@H](Oc1cc(-c2cnn(C3CCNCC3)c2)cnc1N)c1c(Cl)ccc(F)c1Cl [Crizotinib] (partner 1 µM)
Summary of the method: as §1

Cell Line	relative viability ([1]; 0.1 µM)	relative viability ([1]; 1 µM)	relative viability ([1]; 3.162 µM)	relative viability ([2]; first compound 0.1 µM)	relative viability ([2]; first compound 1 µM)	relative viability ([2]; first compound 3.162 µM)	relative viability ([3]; first compound 0.02 µM)	relative viability ([3]; first compound 0.06325 µM)	relative viability ([3]; first compound 0.2 µM)	relative viability ([3]; first compound 0.6325 µM)	relative viability ([3]; first compound 2 µM)	relative viability ([4]; first compound 0.02 µM)	relative viability ([4]; first compound 0.06325 µM)	relative viability ([4]; first compound 0.2 µM)	relative viability ([4]; first compound 0.6325 µM)	relative viability ([4]; first compound 2 µM)
HCC-827	1.07	1.03	0.971	0.868	0.928	0.851	1.1	1.09	0.98	0.991	1.08	0.988	1.04	0.966	0.929	0.937
HOP-62	1.03	1.04	0.911	1.18	0.777	0.937	1.19	1.16	0.966	1.01	1.04	0.579	0.921	0.942	0.884	0.927
IA-LM	0.818	1.05	1.06	0.795	0.759	0.756	1.26	1.05	1.14	1.01	1.19	0.775	0.573	1.02	0.797	0.742
LC-2-ad	1.09	0.977	0.886	0.858	0.958	0.813	0.93	0.998	0.891	0.954	0.984	0.463	0.543	0.433	0.47	0.389
LCLC-97TM1	1.03	0.956	0.489	0.236	0.245	0.181	0.87	0.999	0.924	0.945	0.96	0.344	0.34		0.348	0.29
LCLC-103H	1.03	0.984	1.03	0.998	0.944	0.961	0.703	0.71	0.938	0.754	0.736	1.16	1.01	1.1	1.02	0.977
LK-2	1.01	0.855	0.685	1.1	0.72	0.438	0.93	1.35	1.35	1.37	1.39	0.247	0.234	0.232	0.236	0.244
LOU-NH91	0.959	0.974	0.63	0.705	0.675	0.492	0.994	0.959	0.965	0.929	1.01	0.725	0.761	0.754	0.565	0.756
LU99A	0.94	0.816	0.637	0.517	0.499	0.354	0.855	0.783	0.932	0.79	0.853	0.547	0.654	0.593	0.554	0.573
LXF-289	0.999	1.03	0.975	1.03	1.02	0.917	0.973	0.979	0.967	0.943	0.968	0.834	0.821	0.799	0.823	0.779
NCI-H23	1.05	0.689	0.336	0.553	0.586	0.315	1.05	0.998	1	0.975	0.987	0.512	0.501	0.542	0.509	0.565
NCI-H322M	1.03	1	0.92	0.813	0.815	0.882	1.2	0.945	0.97	0.912	1.04	1.06	0.835	0.962	0.909	0.922
NCI-H358	0.943	0.725	0.137	0.885	0.578	0.131	0.755	0.721	0.747	0.683	0.816	0.622	0.557	0.572	0.56	0.761
NCI-H441	0.975	0.967	0.637	0.92	0.62	0.484	0.91	1.03	0.879	0.85	0.97	1.08	0.666	0.73	0.6	0.749
NCI-H460	1.01	0.99	0.979	0.521	0.435	0.244	1.04	1.06	1.09	0.981	1.03	0.922	0.952	0.931	0.811	0.688
NCI-H522	1.04	0.784	0.635													
NCI-H1395	1.01	0.963	0.601	1.29	1.15	0.66	1.12	1.01	1.07	1	0.981					
NCI-H1623	0.98	1.01	0.951				1.02	0.935	0.77	0.84	0.923					
NCI-H1648	0.789	0.925	0.748													
NCI-H1650	0.988	1.02	0.849				1.42	1.25		1.43	1.19	1.11	1.14	0.836	1.08	1.19
NCI-H1792	0.928	0.937	0.915	0.778	0.732	0.891						1.01	1.02	0.976	1	0.945
NCI-H1793	0.911	1.11	0.863	0.589	0.711	0.636	0.622	0.661	0.562	0.6	0.92					
NCI-H2342	0.897	0.972	0.912				1.05	1.16	1.18	0.97	1.24					
SW 900	0.864	1.02	0.744					1	0.863	0.855	1.04					
